The values below come from paper PMC10290335 (Malaria Journal, 2023).

Each structure is given as a SMILES string. Where “and” joins values, the source holds several entries; their conditions need not be identical. Identical values can stand only once. Entries after “also recorded” stand apart in the source; their conditions may differ.

Data set [1] in a line: Clinical pharmacokinetics of ivermectin metabolites in blood of healthy volunteers. Conditions: for Cmax [ratio]: area/internal standard area ratio; for Cmax [ratio] / Half-life / MRTlast / Tmax: whole blood, 12 subjects, mean ± SE; for Cmax [ratio] / Half-life / MRTlast: 12 mg ivermectin, NCA; for Tmax: single oral 12 mg ivermectin. Format: in vivo, human. The protocol: Peripheral venous blood samples were collected before dosing and after 1, 2, 4, 6, 8, 12, 24, 48 and 72 h. Blood samples (50 µL) were extracted by the addition of 150 µL ISTD solution. Samples were mixed for 1 min and centrifuged for 30 min at 3220×g and 15 °C (5810 R centrifuge). Twenty microlitres of supernatant were injected into the LC–MS/MS system to determine the signal intensity of the metabolites.
The different LC–MS/MS settings were applied for the metabolism, pharmacokinetic and metabolite fractioning assays (Additional file 1: Table S1, S2, S3). All analyses were performed on a modular HPLC (Shimadzu, Kyoto, Japan) composed of four pumps (2 × LC-30AD, 2 × LC-20AD), an autosampler (SIL 30-AC MP), a system controller (CBM-20A), two degassing units (DGU-20A5 and DGU-20A3R), a column oven (CTO-20AC), a low-pressure valve (FCV-12AH), and a fraction collector (FRC-12A). The HPLC system was connected to an API 5000 triple quadrupole mass spectrometer (AB Sciex, Ontario, Canada) that was equipped with a turbo electrospray ionization source. The system was operated with Analyst Software 1.7 (AB Sciex) and acquired data were analysed using MultiQuant Software 3.0.3 (AB Sciex).
The integral method “linear up log down” was used on area/internal standard area ratio.
In total, three T0 blank blood samples originating from different PK study participants were used to resuspend the metabolites (Additional file 1: Table S5). The signal intensity was recorded for every metabolite by extracting the 50 µL blood with 150 µL of ISTD solution. The metabolite peak area was determined by LC–MS/MS (see section LC-MS/MS analysis of ivermectin). Moreover, the PK samples of all study participants were equally extracted and analysed to derive the maximal blood level (Cmax) from the blood level-time curves. Afterwards, the mean metabolite peak area of the spiked blank blood was compared with the mean peak area of the Cmax samples (Additional file 1: Table S5). The amount of each metabolite fraction was either reduced or increased to match the peak area of Cmax samples. If the metabolite was not detectable in PK samples, the amount of metabolite was adjusted to the lower limit of detection of the method. In this case, blank blood was spiked with the metabolite fraction to receive a signal intensity that is three times larger than the corresponding noise level.

The test system of data set [2] is Anopheles stephensi mosquitoes. Put plainly: Anopheles stephensi membrane feeding screening assay (survival and activity). Conditions: for Average activity score: score +2 flying, +1 moving, 0 dead; for activity against An. stephensi: at Cmax levels observed in clinical PK samples; for mean survival of mosquitoes after blood meal: blood meal at Cmax level; for mosquitoes dead after 72 h: blood meal at Cmax level (ivermectin 50 ng/mL), 72 h after treatment. Format: in vivo. The protocol:
The final DMSO content in blood was 0.1%, which was also the DMSO concentration used for the negative control assays (0.1% DMSO in blank blood). Inclusion of blank fractions as additional negative controls were not considered, because it would not have been feasible to also test the corresponding blank fraction for each metabolite fraction (F1–F9). The blood preparations were rotated at room temperature for 20 min to ensure a uniform metabolite distribution (Rotator Genie, Scientific Industries, Bohemia, USA). The dissolution of the metabolites was confirmed by LC–MS/MS.
Around 50–70 female mosquitoes aged 5–10 days post-emergence were transferred with a mouth aspirator into 20 mL paper cups. A piece of mosquito netting was used to cover the cups. Mosquitoes were starved for 24 h before treatment. The mosquito blood meals were heated in a water bath (SAHARA PPO S5P Heated Bath Circulators, Thermo Fisher Scientific, New Hampshire, USA) for 20 min at 39 °C. A Petri dish (35 mm × 10 mm, BD, Franklin Lakes, USA) was filled with 3 mL of warm blood, sealed with a piece of sealing film (Parafilm®, Huberlab AG, Aesch, Switzerland). The Petri dish was placed upside down on top of the net sealing the paper cup. Female mosquitoes were allowed to feed for 20 min on the blood through the net and the sealing film. The feeding was conducted in a climate chamber (HPP110, Memmert GmbH + Co.KG, Schwabach, Germany) at 27 °C, 70% humidity, and 30% light intensity. After feeding, the cups were put on ice to immobilise the mosquitoes and only the fully engorged mosquitoes were selected for the assay. The mosquitoes were returned to the climate chamber to assess their activity and survival for 3 days.
In the framework of screening assays, mosquitoes were treated with blood containing each metabolite corresponding to Cmax levels observed in PK samples. […] In screening assays, eleven treatments were evaluated with three replicates using three batches of 50–70 mosquitoes.

Data set [3] relates to Anopheles stephensi mosquitoes. Put plainly: 3-day LC50 in Anopheles stephensi (membrane feeding, dilutions). Format: in vivo. The settings on record: 72 h after blood feeding; Cmax = maximal peak area in human PK samples. How it is done: A pilot test was performed to evaluate optimal dilutions matching the expected LC50 values (data not shown).
Student's t test was adopted to test the significance of all mean survival differences between groups, using the R package ggsignif (version 0.6.4). Survival analyses, summary and visualisation of survival analysis were computed using the GNU R packages survival (version 3.1-8) and survminer (version 0.4.9). Replicates were pooled and analysed by the logrank test and the hazard ratio with 95% confidence intervals. LC50 in An. stephensi mosquito were approximated with regression analysis, using GNU R package drc (version 3.0-1) for analysis of dose–response curves (Additional file 1: Fig. S3). The time above LC50 estimation (Additional file 1: Fig. S4) was computed using the GNU R package data.table (version 1.14.6).

The target in the next data set is T1, rh CYP3A5 supersomes (Homo sapiens, UniProt P20815).
T1 construct: purchased Corning Life Sciences B.V. (Amsterdam, The Netherlands)
T1 sequence (P20815 whole entry): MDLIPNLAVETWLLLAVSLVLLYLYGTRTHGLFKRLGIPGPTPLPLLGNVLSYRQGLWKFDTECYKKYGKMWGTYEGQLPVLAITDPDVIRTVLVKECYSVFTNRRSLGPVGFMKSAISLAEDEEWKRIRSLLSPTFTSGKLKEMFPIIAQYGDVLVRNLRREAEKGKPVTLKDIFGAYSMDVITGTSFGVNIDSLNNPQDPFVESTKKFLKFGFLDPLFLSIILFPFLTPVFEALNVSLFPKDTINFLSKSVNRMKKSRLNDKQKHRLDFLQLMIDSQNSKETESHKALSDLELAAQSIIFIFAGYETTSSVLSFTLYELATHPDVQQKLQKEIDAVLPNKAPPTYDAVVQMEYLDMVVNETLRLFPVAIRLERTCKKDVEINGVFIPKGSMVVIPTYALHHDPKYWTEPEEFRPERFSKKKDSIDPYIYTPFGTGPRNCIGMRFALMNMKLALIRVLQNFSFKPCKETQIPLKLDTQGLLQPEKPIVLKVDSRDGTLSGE
Put plainly: Ivermectin metabolism by recombinant human CYP3A5 supersomes. Format: in vitro ADME. Conditions: 10 µM ivermectin. How it is done: (§1) The assay mixture was heated for 10 min at 37 °C in a Thermomixer 5436 (Eppendorf, Hamburg, Germany) and the reaction was initiated by the addition of supersomes. Samples (50 μL) were taken after 0, 15, 30, 45, and 60 min. […] After centrifugation (30 min at 3220×g and 15 °C, 5810 R Eppendorf centrifuge), sample supernatants (10 µL) were analysed by LC–MS/MS. Metabolite production was quantified by dividing the metabolite peak area with the ISTD peak area. Each metabolism assay was performed in triplicate.

Another data set addresses T2, rh CYP3A4 supersomes (Homo sapiens, UniProt P08684).
T2 construct: purchased Corning Life Sciences B.V. (Amsterdam, The Netherlands)
Put plainly: Ivermectin metabolism by recombinant human CYP3A4 supersomes. Format: in vitro ADME. Conditions: 10 µM ivermectin. How it is done: as §1

The mark [4] stands for this setting: mean of PK subjects 1-12, 50 µL blood.

T2 sequence (P08684 whole entry): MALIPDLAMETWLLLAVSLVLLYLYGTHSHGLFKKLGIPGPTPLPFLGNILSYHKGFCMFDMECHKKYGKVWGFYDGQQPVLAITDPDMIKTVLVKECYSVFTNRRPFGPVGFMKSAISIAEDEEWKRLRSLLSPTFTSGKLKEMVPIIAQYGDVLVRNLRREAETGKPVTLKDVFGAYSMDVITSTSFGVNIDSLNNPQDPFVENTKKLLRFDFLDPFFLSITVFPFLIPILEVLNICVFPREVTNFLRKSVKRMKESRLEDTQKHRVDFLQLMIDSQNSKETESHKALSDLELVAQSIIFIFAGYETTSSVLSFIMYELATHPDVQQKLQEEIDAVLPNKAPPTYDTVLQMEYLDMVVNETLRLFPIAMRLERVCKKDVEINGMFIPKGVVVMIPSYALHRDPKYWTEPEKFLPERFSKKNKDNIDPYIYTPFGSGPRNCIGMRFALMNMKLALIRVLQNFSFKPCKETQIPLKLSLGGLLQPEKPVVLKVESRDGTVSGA

Take `CCC(C)C1OC2(CCC1C)CC1CC(CC=C(C)C(OC3CC(OC)C(OC4CC(O)C(O)C(C)O4)C(C)O3)C(C)C=CC=C3COC4C(O)C(C)=CC(C(=O)O1)C34O)O2` (stereo not drawn) [M1, 3″-O-desmethyl-H2B1a]: the “Observed Cmax, peak area” value in data set [1] (PK subject 1, 50 µL blood) amounted to 1.95E+04 counts; in data set [1] (PK subject 2, 50 µL blood) it was 1.01E+04 counts; in data set [1] (PK subject 3, 50 µL blood), 1.39E+04 counts; in data set [1] (PK subject 4, 50 µL blood), 8.48E+03 counts; in data set [1] (PK subject 5, 50 µL blood), 9.52E+03 counts; in data set [1] (PK subject 6, 50 µL blood), 2.33E+04 counts. In addition, the “Observed Cmax, peak area” value in data set [1] (PK subject 7, 50 µL blood) came to 1.56E+04 counts; in data set [1] (PK subject 8, 50 µL blood), 1.79E+04 counts; in data set [1] (PK subject 9, 50 µL blood), 1.28E+04 counts; in data set [1] (PK subject 10, 50 µL blood), 1.60E+04 counts; in data set [1] (PK subject 11, 50 µL blood) it was 2.28E+04 counts; in data set [1] (PK subject 12, 50 µL blood), 1.78E+04 counts. Also, in data set [1] (setting [4]), the “Observed Cmax, peak area” value stood at 1.56E+04 counts. The “Cmax [ratio]” value in data set [1] turned out to be 0.011 ± 0.001 ratio. In addition, the Half-life in data set [1] was found to be 54.2 ± 4.7 h. Besides, in data set [1], the MRTlast is listed as 33.8 ± 0.9 h. Further, in data set [1], the Tmax (in general, the time at which the peak concentration occurs) came out at 7.0 ± 0.5 h. For the same compound, the Average activity score in data set [2] (0 h post feeding) was 2.00; in data set [2] (24 h post feeding) it was 1.07 and 1.07 ± 0.04; in data set [2] (48 h post feeding), 0.23 and 0.23 ± 0.02; in data set [2] (72 h post feeding) it was 0.01. In data set [2], the “activity against An. stephensi” value is “active”. In addition, the “mean survival of mosquitoes after blood meal” value in data set [2] was “decreased”. In addition, in data set [2], the “mosquitoes dead after 72 h” value came out at 98.8%. In addition, the “3-day LC50” value in data set [3] amounted to 0.25 Cmax.
Turning to `CCC(C)C1OC2(CCC1C)CC1CC(CC=C(C)C(OC3CC(OC)C(OC4CC(OC)C(O)C(C)O4)C(C)O3)C(C)C=CC=C3COC4C(O)C(CO)=CC(C(=O)O1)C34O)O2` (stereo not drawn) [M2, 4-hydroxy-H2B1a], the “Observed Cmax, peak area” value in data set [1] (PK subject 1, 50 µL blood) was found to be 1.84E+04 counts; in data set [1] (PK subject 2, 50 µL blood), 9.36E+03 counts; in data set [1] (PK subject 3, 50 µL blood) it was 1.31E+04 counts; in data set [1] (PK subject 4, 50 µL blood) it was 7.42E+03 counts; in data set [1] (PK subject 5, 50 µL blood), 9.63E+03 counts; in data set [1] (PK subject 6, 50 µL blood), 2.00E+04 counts. Further, the “Observed Cmax, peak area” value stood at 1.39E+04 counts in data set [1] (PK subject 7, 50 µL blood); 1.25E+04 counts in data set [1] (PK subject 8, 50 µL blood); 1.08E+04 counts in data set [1] (PK subject 9, 50 µL blood); 1.50E+04 counts in data set [1] (PK subject 10, 50 µL blood); 1.64E+04 counts in data set [1] (PK subject 11, 50 µL blood); 1.59E+04 counts in data set [1] (PK subject 12, 50 µL blood). Further, the “Observed Cmax, peak area” value in data set [1] (setting [4]) was 1.35E+04 counts. Further, in data set [1], the “Cmax [ratio]” value stood at 0.010 ± 0.0010 ratio. In addition, the Half-life in data set [1] is given as 31.9 ± 3.4 h. The MRTlast in data set [1] was 25.8 ± 0.7 h. The Tmax in data set [1] was determined as 6.3 ± 0.3 h. Further, the Average activity score was 2.00 in data set [2] (0 h post feeding); 1.20 and 1.20 ± 0.12 in data set [2] (24 h post feeding); 0.28 and 0.28 ± 0.05 in data set [2] (48 h post feeding); 0 in data set [2] (72 h post feeding). The “activity against An. stephensi” value in data set [2] is recorded as “active”. The “mean survival of mosquitoes after blood meal” value in data set [2] is reported as “decreased”. Moreover, in data set [2], the “mosquitoes dead after 72 h” value is 100%. The “3-day LC50” value in data set [3] was found to be 0.21 Cmax.
On to `CC[C@H](C)[C@H]1O[C@]2(CC[C@@H]1CO)C[C@@H]1C[C@@H](C/C=C(\C)[C@@H](O[C@H]3C[C@H](OC)[C@@H](O)[C@H](C)O3)[C@@H](C)/C=C/C=C3\CO[C@@H]4[C@H](O)C(C)=C[C@@H](C(=O)O1)[C@]34O)O2` [M5, 24-hydroxy-H2B1a monosaccharide], for which the “Observed Cmax, peak area” value turned out to be 7.86E+02 counts in data set [1] (PK subject 1, 50 µL blood); 5.85E+02 counts in data set [1] (PK subject 2, 50 µL blood); 1.01E+03 counts in data set [1] (PK subject 3, 50 µL blood); 7.22E+02 counts in data set [1] (PK subject 4, 50 µL blood); 6.06E+02 counts in data set [1] (PK subject 5, 50 µL blood); 1.25E+03 counts in data set [1] (PK subject 6, 50 µL blood). The “Observed Cmax, peak area” value in data set [1] (PK subject 7, 50 µL blood) was determined as 8.58E+02 counts; in data set [1] (PK subject 8, 50 µL blood), 6.84E+02 counts; in data set [1] (PK subject 9, 50 µL blood) it was 6.59E+02 counts; in data set [1] (PK subject 10, 50 µL blood), 7.23E+02 counts; in data set [1] (PK subject 11, 50 µL blood), 8.95E+02 counts; in data set [1] (PK subject 12, 50 µL blood) it was 7.29E+02 counts. Further, the “Observed Cmax, peak area” value in data set [1] (setting [4]) is recorded as 7.92E+02 counts. Moreover, in data set [1], the Tmax turned out to be 6.4 ± 0.4 h. Besides, the Average activity score stood at 2.00 in data set [2] (0 h post feeding), 1.90 in data set [2] (24 h post feeding), 1.86 in data set [2] (48 h post feeding) and 1.81 in data set [2] (72 h post feeding).
For `CC[C@H](C)[C@H]1O[C@]2(CC[C@@H]1CO)C[C@@H]1C[C@@H](C/C=C(\C)[C@@H](O[C@H]3C[C@H](OC)[C@@H](O[C@H]4C[C@H](OC)[C@@H](O)[C@H](C)O4)[C@H](C)O3)[C@@H](C)/C=C/C=C3\CO[C@@H]4[C@H](O)C(C)=C[C@@H](C(=O)O1)[C@]34O)O2` [M9, 24-hydroxy-H2B1a], the “detection in pharmacokinetic samples” value in data set [1] (human blood after single oral 12 mg ivermectin) is given as “Only traces”. For the same compound, the “metabolite formation by CYP3A5” value at rh CYP3A5 supersomes is on record as “mainly produced by CYP3A5; also recorded: very effective”. For the same compound, the “metabolite formation by CYP3A4” value at rh CYP3A4 supersomes was “only minor amounts”. Besides, the Average activity score in data set [2] (0 h post feeding) came out at 2.00; in data set [2] (24 h post feeding) it was 1.92; in data set [2] (48 h post feeding), 1.87; in data set [2] (72 h post feeding) it was 1.64.
